Data from PubChem BioAssay (NCI).
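Each compound was tested at five concentrations against cells in 96-well plates for 48 hours. GI50 marks 50% less growth. The concentration for full growth arrest is given as TGI.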

Experiments:
Assay in all cases: growth of human tumour cells (NCI), 48 h
U251 CNS = tested on: U251 CNS
LOX IMVI melanoma = tested on: LOX IMVI melanoma
SK-MEL-5 melanoma = tested on: SK-MEL-5 melanoma
TK-10 renal = tested on: TK-10 renal
NCI-H226 lung = tested on: NCI-H226 lung
OVCAR-8 ovarian = tested on: OVCAR-8 ovarian
HT29 colon = tested on: HT29 colon
SF-268 CNS = tested on: SF-268 CNS
OVCAR-4 ovarian = tested on: OVCAR-4 ovarian
OVCAR-5 ovarian = tested on: OVCAR-5 ovarian
DU-145 prostate = tested on: DU-145 prostate
SK-MEL-28 melanoma = tested on: SK-MEL-28 melanoma
UACC-62 melanoma = tested on: UACC-62 melanoma
SF-539 CNS = tested on: SF-539 CNS
HCC-2998 colon = tested on: HCC-2998 colon
UO-31 renal = tested on: UO-31 renal
HL-60(TB) leukemia = tested on: HL-60(TB) leukemia
T-47D breast = tested on: T-47D breast
HCT-15 colon = tested on: HCT-15 colon
SK-OV-3 ovarian = tested on: SK-OV-3 ovarian
MDA-MB-435 = tested on: MDA-MB-435
NCI-H522 lung = tested on: NCI-H522 lung
CCRF-CEM leukemia = tested on: CCRF-CEM leukemia
MOLT-4 leukemia = tested on: MOLT-4 leukemia
K-562 leukemia = tested on: K-562 leukemia
A549 NSCLC = tested on: A549 NSCLC
SN12C renal = tested on: SN12C renal
RPMI-8226 leukemia = tested on: RPMI-8226 leukemia
HCT-116 colon = tested on: HCT-116 colon
NCI-H23 lung = tested on: NCI-H23 lung
IGROV1 ovarian = tested on: IGROV1 ovarian
SR leukemia = tested on: SR leukemia
EKVX NSCLC = tested on: EKVX NSCLC
MALME-3M melanoma = tested on: MALME-3M melanoma
KM12 colon = tested on: KM12 colon
MCF7 breast = tested on: MCF7 breast
NCI/ADR-RES ovarian = tested on: NCI/ADR-RES ovarian
COLO 205 colon = tested on: COLO 205 colon
RXF 393 renal = tested on: RXF 393 renal
PC-3 prostate = tested on: PC-3 prostate
MDA-MB-231 breast = tested on: MDA-MB-231 breast
SW-620 colon = tested on: SW-620 colon
HOP-62 NSCLC = tested on: HOP-62 NSCLC
SF-295 CNS = tested on: SF-295 CNS
UACC-257 melanoma = tested on: UACC-257 melanoma
786-0 renal = tested on: 786-0 renal
SNB-19 CNS = tested on: SNB-19 CNS
M14 melanoma = tested on: M14 melanoma
HS 578T breast = tested on: HS 578T breast
OVCAR-3 ovarian = tested on: OVCAR-3 ovarian
SNB-75 CNS = tested on: SNB-75 CNS
BT-549 breast = tested on: BT-549 breast
NCI-H460 lung = tested on: NCI-H460 lung
SK-MEL-2 melanoma = tested on: SK-MEL-2 melanoma
ACHN renal = tested on: ACHN renal
HOP-92 NSCLC = tested on: HOP-92 NSCLC
A498 renal = tested on: A498 renal

For `CCS(=O)(=O)Nc1ccc(Oc2ccc(F)cc2F)c(-c2cn(C)c(=O)c3[nH]ccc23)c1`, the GI50 (U251 CNS) was 0.293 µM, the TGI (U251 CNS) was 16.8 µM and the GI50 (LOX IMVI melanoma) was 0.0124 µM. For the same compound, the TGI (LOX IMVI melanoma) was 0.905 µM, the GI50 (SK-MEL-5 melanoma) was 0.0727 µM and the TGI (SK-MEL-5 melanoma) was 7.29 µM. For the same compound, the GI50 (TK-10 renal) was under 0.01 µM, the TGI (TK-10 renal) was 1.25 µM and the GI50 (NCI-H226 lung) was 2.46 µM. It also gave a TGI (NCI-H226 lung) of 20.2 µM, a GI50 (OVCAR-8 ovarian) of 0.253 µM and a TGI (OVCAR-8 ovarian) of 43.1 µM. For the same compound, the GI50 (HT29 colon) was under 0.01 µM, the TGI (HT29 colon) was 14.1 µM and the GI50 (SF-268 CNS) was 1.57 µM. It also gave a TGI (SF-268 CNS) of 53.2 µM, a GI50 (OVCAR-4 ovarian) of 0.275 µM and a TGI (OVCAR-4 ovarian) of 37 µM. It also gave a GI50 (OVCAR-5 ovarian) of 1.29 µM, a TGI (OVCAR-5 ovarian) of 34.7 µM and a GI50 (DU-145 prostate) of 2.88 µM. For the same compound, the TGI (DU-145 prostate) was 31.4 µM, the GI50 (SK-MEL-28 melanoma) was 1.64 µM and the TGI (SK-MEL-28 melanoma) was 21 µM. It also gave a GI50 (UACC-62 melanoma) of under 0.01 µM, a TGI (UACC-62 melanoma) of 6.28 µM and a GI50 (SF-539 CNS) of 0.0135 µM. It also gave a TGI (SF-539 CNS) of 16.1 µM, a GI50 (HCC-2998 colon) of 0.0342 µM and a TGI (HCC-2998 colon) of 1.38 µM. It also gave a GI50 (UO-31 renal) of under 0.01 µM, a TGI (UO-31 renal) of 12 µM and a GI50 (HL-60(TB) leukemia) of under 0.01 µM. The TGI (HL-60(TB) leukemia) was 0.249 µM, the GI50 (T-47D breast) was 0.0253 µM and the TGI (T-47D breast) was 30.1 µM. It also gave a GI50 (HCT-15 colon) of 0.0404 µM, a TGI (HCT-15 colon) of 19.5 µM and a GI50 (SK-OV-3 ovarian) of under 0.0109 µM. The TGI (SK-OV-3 ovarian) was 6.2 µM, the GI50 (MDA-MB-435) was under 0.0112 µM and the TGI (MDA-MB-435) was 13.3 µM. It also gave a GI50 (NCI-H522 lung) of under 0.01 µM, a TGI (NCI-H522 lung) of 5.92 µM and a GI50 (CCRF-CEM leukemia) of 0.162 µM. The TGI (CCRF-CEM leukemia) was over 60 µM, the GI50 (MOLT-4 leukemia) was 0.408 µM and the TGI (MOLT-4 leukemia) was 15.6 µM. For the same compound, the GI50 (K-562 leukemia) was 0.0322 µM, the TGI (K-562 leukemia) was over 62.6 µM and the GI50 (A549 NSCLC) was 0.152 µM. The TGI (A549 NSCLC) was 28.1 µM, the GI50 (SN12C renal) was 0.981 µM and the TGI (SN12C renal) was 31.2 µM. For the same compound, the GI50 (RPMI-8226 leukemia) was under 0.0232 µM, the TGI (RPMI-8226 leukemia) was 17.5 µM and the GI50 (HCT-116 colon) was 0.0321 µM. The TGI (HCT-116 colon) was 12.8 µM, the GI50 (NCI-H23 lung) was 0.0956 µM and the TGI (NCI-H23 lung) was 13.5 µM. For the same compound, the GI50 (IGROV1 ovarian) was 0.0327 µM, the TGI (IGROV1 ovarian) was 20.5 µM and the GI50 (SR leukemia) was 0.0444 µM. It also gave a TGI (SR leukemia) of 30.7 µM, a GI50 (EKVX NSCLC) of 0.196 µM and a TGI (EKVX NSCLC) of 31.9 µM. The GI50 (MALME-3M melanoma) was 0.202 µM, the TGI (MALME-3M melanoma) was 12.9 µM and the GI50 (KM12 colon) was 0.109 µM. The TGI (KM12 colon) was 18.2 µM, the GI50 (MCF7 breast) was under 0.01 µM and the TGI (MCF7 breast) was 14.3 µM. It also gave a GI50 (NCI/ADR-RES ovarian) of 0.561 µM, a TGI (NCI/ADR-RES ovarian) of 39.4 µM and a GI50 (COLO 205 colon) of under 0.01 µM. For the same compound, the TGI (COLO 205 colon) was 6.29 µM, the GI50 (RXF 393 renal) was 1.62 µM and the TGI (RXF 393 renal) was 14.1 µM. The GI50 (PC-3 prostate) was 0.0656 µM, the TGI (PC-3 prostate) was 49.4 µM and the GI50 (MDA-MB-231 breast) was 0.0494 µM. For the same compound, the TGI (MDA-MB-231 breast) was 17.5 µM, the GI50 (SW-620 colon) was 1.65 µM and the TGI (SW-620 colon) was 25.8 µM. It also gave a GI50 (HOP-62 NSCLC) of under 0.0245 µM, a TGI (HOP-62 NSCLC) of 26.2 µM and a GI50 (SF-295 CNS) of 0.0742 µM. For the same compound, the TGI (SF-295 CNS) was 20.1 µM, the GI50 (UACC-257 melanoma) was 0.0448 µM and the TGI (UACC-257 melanoma) was 23.1 µM. For the same compound, the GI50 (786-0 renal) was 0.192 µM, the TGI (786-0 renal) was 18.1 µM and the GI50 (SNB-19 CNS) was 0.31 µM. The TGI (SNB-19 CNS) was 30.9 µM, the GI50 (M14 melanoma) was under 0.0138 µM and the TGI (M14 melanoma) was 17 µM. The GI50 (HS 578T breast) was under 0.0183 µM, the TGI (HS 578T breast) was 36.5 µM and the GI50 (OVCAR-3 ovarian) was 0.0402 µM. The TGI (OVCAR-3 ovarian) was 19.6 µM, the GI50 (SNB-75 CNS) was under 0.01 µM and the TGI (SNB-75 CNS) was 0.986 µM. The GI50 (BT-549 breast) was 0.366 µM, the TGI (BT-549 breast) was 21.3 µM and the GI50 (NCI-H460 lung) was 0.302 µM. The TGI (NCI-H460 lung) was 19.3 µM, the GI50 (SK-MEL-2 melanoma) was 0.761 µM and the TGI (SK-MEL-2 melanoma) was 15.9 µM. It also gave a GI50 (ACHN renal) of 0.153 µM, a TGI (ACHN renal) of 27.2 µM and a TGI (HOP-92 NSCLC) of 28.3 µM. It also gave a GI50 (A498 renal) of 0.157 µM and a TGI (A498 renal) of 4.01 µM.
